Measured values reported in US7166622B2, “Substituted phenylsulfonamide inhibitors of beta amyloid production” (Wyeth, priority 2002, dated 2007).
Where two headings read alike, the source gives them in different places.

How the values were obtained:
beta amyloid production = test: Repressor Release Assay (RRA); format: cell-based; settings: for fold induction at 20 µg/mL / APPI Fold Increase / APPI % of Example #98: Conc 20 μg/ml; for APPI % of Example #98: relative to Example 98
Method in brief: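 CHO-K1 cells transiently co-transfected with pRSVO-luc and an APP-lacI construct, replated, then treated in duplicate for 36-48 h at 37 °C, 5% CO2. Compounds diluted in 25 mM Hepes, with Hepes/1% DMSO as diluent control. Luciferase read-out in relative light units; toxicity scored 1 non-toxic, 0 toxic.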

CHO-K1 cells = test: Toxicity in RRA (loss of luciferase signal); settings: toxicity = loss of signal (<0.75 fold increase)
Experimental: The beta amyloid inhibitory activity of the compounds of the present invention was determined using the Repressor Release Assay (RRA).
“Fold Increase” refers to the amount of luciferase activity (measured in relative light units) over diluent control. “SEM” refers to the standard error of the mean for fold increase.

[1] = luciferase activity (RLU) over diluent control, read-out: APPI Fold Increase
[2] = Conc 20 μg/ml, 1=non-toxic, 0=toxic
[3] = luciferase activity (RLU) over diluent control
[4] = luciferase activity over diluent control, read-out: APPI Fold Increase

SMILES | fold induction at 20 µg/mL (beta amyloid production; [1]) | (%)APPI Toxicity (CHO-K1 cells; [2]) | other results
CC(C)C[C@@H](c1ccccc1)[C@@H](CO)NS(=O)(=O)c1ccc(Cl)cc1 [Example 64, 4-chloro-N-[(1S,2S)-1-(hydroxymethyl)-4-methyl-2-phenylpentyl]benzenesulfonamide] | 1.7 | 1 (1=non-toxic) | –
CCCCCC[C@@H](c1ccccc1)[C@@H](CO)NS(=O)(=O)c1ccc(Cl)cc1 [Example 65, 4-chloro-N-[(1S,2S)-1-(hydroxymethyl)-2-phenyloctyl]benzenesulfonamide] | 1.9 | 1 (1=non-toxic) | –
CC[C@@H](c1ccco1)[C@@H](CO)NS(=O)(=O)c1ccc(Cl)cc1 [Example 66, 4-chloro -N-[(1S,2R)-2-(2-furyl)-1-(hydroxymethyl)butyl]benzenesulfonamide] | 5.5 | 1 (1=non-toxic) | –
CC(C)C[C@@H](c1ccco1)[C@@H](CO)NS(=O)(=O)c1ccc(Cl)cc1 [Example 67, 4-chloro -N-[(1S,2R)-2-(2-furyl)-1-(hydroxymethyl)-4-methylpentyl]benzenesulfonamide] | 3.9 | 1 (1=non-toxic) | –
CCCCCC[C@@H](c1ccco1)[C@@H](CO)NS(=O)(=O)c1ccc(Cl)cc1 [Example 68, 4-chloro-N-[(1S,2R)-2-(2-furyl)-1-(hydroxymethyl)octyl]benzenesulfonamide] | 2 | 1 (1=non-toxic) | –
CC(C)[C@H](C)[C@@H](CO)NS(=O)(=O)c1ccc(Cl)cc1 [Example 69, 4-chloro-N-[(1S,2S)-1-(hydroxymethyl)-2,3-dimethylbutyl]benzenesulfonamide] | 3.1 | 1 (1=non-toxic) | –
CCCCCC[C@@H](C(C)C)[C@@H](CO)NS(=O)(=O)c1ccc(Cl)cc1 [Example 70, 4-chloro-N-[(1S,2S)-1-(hydroxymethyl)-2-isopropyloctyl]benzenesulfonamide] | 2 | 1 (1=non-toxic) | –
COc1ccc([C@@H](C)[C@@H](CO)NS(=O)(=O)c2ccc(Br)cc2)cc1 [Example 71, 4-bromo-N-[(1S,2R)-1-(hydroxymethyl)-2-(4-methoxyphenyl)propyl]benzenesulfonamide] | 1.9 | 1 (1=non-toxic) | –
CCCCCC[C@@H](C)[C@@H](CO)NS(=O)(=O)c1ccc(Br)cc1 [Example 72, 4-bromo-N-[(1S,2R)-1-(hydroxymethyl)-2-methyloctyl] benzenesulfonamide] | – | 1 (1=non-toxic) | APPI Fold Increase (beta amyloid production; [3]): 3.2; APPI % of Example #98 (beta amyloid production): 76.4%
CC[C@H](CC(C)C)[C@@H](CO)NS(=O)(=O)c1ccc(Br)cc1 [Example 73, 4-bromo-N-[(1S,2R)-2-ethyl-1-(hydroxymethyl)-4-methylpentyl]benzenesulfonamide] | 5.4 | 1 (1=non-toxic) | –
CC[C@H](c1ccc(OC)cc1)[C@@H](CO)NS(=O)(=O)c1ccc(Br)cc1 [Example 74, 4-bromo-N-[(1S,2R)-1-(hydroxymethyl)-2-(4-methoxyphenyl)butyl]benzenesulfonamide] | 2.5 | 1 (1=non-toxic) | –
CCCCCC[C@@H](CC)[C@@H](CO)NS(=O)(=O)c1ccc(Br)cc1 [Example 75, 4-bromo-N-[(1S,2R)-2-ethyl-1-(hydroxymethyl)octyl]benzenesulfonamide] | 4.8 | 1 (1=non-toxic) | –
CCC[C@H](C)[C@@H](CO)NS(=O)(=O)c1ccc(Br)cc1 [Example 76, 4-bromo-N-[(1S,2S)-1-(hydroxymethyl)-2-methylpentyl]benzenesulfonamide] | 5.8 | 1 (1=non-toxic) | –
CCC[C@H](CC)[C@@H](CO)NS(=O)(=O)c1ccc(Br)cc1 [Example 77, 4-bromo-N-[(1S,2S)-2-ethyl-1-(hydroxymethyl)pentyl]benzenesulfonamide] | 5.9 | 1 (1=non-toxic) | –
CCC[C@H](CC(C)C)[C@@H](CO)NS(=O)(=O)c1ccc(Br)cc1 [Example 78, 4-bromo-N-[(1S,2R)-1-(hydroxymethyl)-4-methyl-2-propylpentyl]benzenesulfonamide] | 4.4 | 1 (1=non-toxic) | –
CCCCCC[C@@H](CCC)[C@@H](CO)NS(=O)(=O)c1ccc(Br)cc1 [Example 79, 4-bromo-N-[(1S,2R)-1-(hydroxymethyl)-2-propyloctyl]benzenesulfonamide] | 1.5 | 1 (1=non-toxic) | –
CCCCC[C@H](C)[C@@H](CO)NS(=O)(=O)c1ccc(Br)cc1 [Example 80, 4-bromo-N-[(1S,2S)-1-(hydroxymethyl)-2-methylheptyl]benzenesulfonamide] | 3.9 | 1 (1=non-toxic) | –

SMILES | fold induction at 20 µg/mL (beta amyloid production; [1]) | (%)APPI Toxicity (CHO-K1 cells; [2]) | other results
CCCCC[C@H](CC)[C@@H](CO)NS(=O)(=O)c1ccc(Br)cc1 [Example 81, 4-bromo-N-[(1S,2S)-2-ethyl-1-(hydroxymethyl)heptyl]benzenesulfonamide] | 5 | 1 (1=non-toxic) | –
C[C@@H](c1ccccc1)[C@@H](CO)NS(=O)(=O)c1ccc(Br)cc1 [Example 82, 4-bromo-N-[(1S,2S)-1-(hydroxymethyl)-2-phenylpropyl]benzenesulfonamide] | 2.6 | 1 (1=non-toxic) | –
CC[C@@H](c1ccccc1)[C@@H](CO)NS(=O)(=O)c1ccc(Br)cc1 [Example 83, 4-bromo-N-[(1S,2S)-1-(hydroxymethyl)-2-phenylbutyl]benzenesulfonamide] | 3.4 | 1 (1=non-toxic) | –
C[C@@H](c1ccco1)[C@@H](CO)NS(=O)(=O)c1ccc(Br)cc1 [Example 84, 4-bromo-N-[(1S,2R)-2-(2-furyl)-1-(hydroxymethyl)propyl]benzenesulfonamide] | 3.4 | 1 (1=non-toxic) | –
CC[C@@H](c1ccco1)[C@@H](CO)NS(=O)(=O)c1ccc(Br)cc1 [Example 85, 4-bromo-N-[(1S,2R)-2-(2-furyl)-1-(hydroxymethyl)butyl]benzenesulfonamide] | 3.4 | 1 (1=non-toxic) | –
CC(C)C[C@@H](c1ccco1)[C@@H](CO)NS(=O)(=O)c1ccc(Br)cc1 [Example 86, 4-bromo-N-[(1S,2R)-2-(2-furyl)-1-(hydroxymethyl)-4-methylpentyl]benzenesulfonamide] | 1.6 | 1 (1=non-toxic) | –
CC(C)C[C@@H](C(C)C)[C@@H](CO)NS(=O)(=O)c1ccc(Br)cc1 [Example 87, 4-bromo-N-[(1S,2S)-1-(hydroxymethyl)-2-isopropyl-4-methylpentyl]benzenesulfonamide] | 8.8 | 1 (1=non-toxic) | –
CCCCCC[C@H](CC)[C@@H](CO)NS(=O)(=O)c1ccc(Cl)cc1 [Example 88, 4-Chloro-N-[(1 S,2S)-2-ethyl-1-(hydroxymethyl)octyl]benzenesulfonamide] | 6.4 | 1 (1=non-toxic) | –
CCCCCC[C@@H](CC)[C@@H](CO)NS(=O)(=O)c1ccc(Cl)cc1 [Example 89, 4-chloro-N-[(1S,2R)-2-ethyl-1-(hydroxymethyl)octyl] benzenesulfonamide] | – | 1 (1=non-toxic) | APPI Fold Increase (beta amyloid production; [3]): 22.4; APPI % of Example #98 (beta amyloid production): 97.9%
CC[C@H](C)[C@@H](CO)N(C)S(=O)(=O)c1ccc(Cl)cc1 [Example 90, 4-Chloro-N-methyl-N-[(1S,2S)-1-(hydroxymethyl)-2-methylbutyl]benzenesulfonamide] | – | – | fold induction at 20 µg/mL (beta amyloid production; [4]): 1.6; (%)APPI Toxicity (CHO-K1 cells; Conc 20 μg/ml): 1 (1=non-toxic)
CC[C@H](C)[C@@H](CO)NS(=O)(=O)c1ccc(Cl)cc1 [Example 91, 4-Chloro-N-[(1S,2S)-1-(hydroxymethyl)-2-methylbutyl]benzenesulfonamide] | – | – | fold induction at 3 µg/mL (beta amyloid production; Conc 3 μg/ml, luciferase activity over diluent control, read-out: APPI Fold Increase): 1.71; fold induction at 10 µg/mL (beta amyloid production; Conc 10 μg/ml, luciferase activity over diluent control, read-out: APPI Fold Increase): 2.38; (%)APPI Toxicity (CHO-K1 cells; Conc 3 μg/ml): 1 (1=non-toxic); (%)APPI Toxicity (CHO-K1 cells; Conc 10 μg/ml): 1 (1=non-toxic); (%)APPI Toxicity (CHO-K1 cells; Conc 20 μg/ml): 1 (1=non-toxic)
CC(C)C[C@@H](CO)NS(=O)(=O)c1ccc(Cl)cc1 [Example 92, 4-chloro-N-[(1S)-1-(hydroxymethyl)-3-methylbutyl]benzenesulfonamide] | – | – | fold induction at 20 µg/mL (beta amyloid production; [4]): 1.7; (%)APPI Toxicity (CHO-K1 cells; Conc 20 μg/ml): 1 (1=non-toxic)
C[C@@H](NS(=O)(=O)c1ccc(Cl)cc1)[C@@H](O)c1ccccc1 [Example 93, 4-chloro-N-[(1R,2S)-2-hydroxy-1-methyl-2-phenylethyl]benzenesulfonamide] | – | – | fold induction at 20 µg/mL (beta amyloid production; [4]): 1.5; (%)APPI Toxicity (CHO-K1 cells; Conc 20 μg/ml): 1 (1=non-toxic)
O=S(=O)(NC1(CO)CCCC1)c1ccc(Br)cc1 [Example 94, 4-bromo-N-[1-(hydroxymethyl)cyclopentyl]benzenesulfonamide] | – | – | fold induction at 20 µg/mL (beta amyloid production; [4]): 2.5; (%)APPI Toxicity (CHO-K1 cells; Conc 20 μg/ml): 1 (1=non-toxic)
O=S(=O)(N[C@H](CO)CC1CCCCC1)c1ccc(Cl)cc1 [Example 95, 4-chloro-N-[(1S)-2-cyclohexyl-1-(hydroxymethyl)ethyl]benzenesulfonamide] | – | – | fold induction at 20 µg/mL (beta amyloid production; [4]): 1.6; (%)APPI Toxicity (CHO-K1 cells; Conc 20 μg/ml): 1 (1=non-toxic)
O=S(=O)(N[C@H](CO)Cc1ccc(OCc2ccccc2)cc1)c1ccc(Cl)cc1 [Example 96, N-{(1S)-1-[4-(benzyloxy)benzyl]-2-hydroxyethyl}-4-chlorobenzenesulfonamide] | – | – | fold induction at 20 µg/mL (beta amyloid production; [4]): 1.5; (%)APPI Toxicity (CHO-K1 cells; Conc 20 μg/ml): 1 (1=non-toxic)
